Experimental data taken from US12091424B2, “Rapamycin derivatives” (NOVARTIS AG, priority 2017, dated 2024).

What was measured:
mTORC1 signaling = assay: MEF TSC1−/− cell-based assay for rapalog potency (pS6); parameters: species or system Mouse; conditions: Mus musculus, MEF TSC1−/− cells; average from multiple assays
Protocol: Cell-based assay for rapalog potency determination. Rapalog potency was determined using MEF TSC1−/− cell based assay. MEF TSC1−/− cells are Mouse Embryonic Fibroblasts deficient in Tuberous sclerosis protein—TSC1, which negatively regulates mTORC1 signaling and thus display constitutive mTORC1 activation, resulting in phosphorylation (activation) of downstream molecules. This cell-based assay is used to measure inhibition (de-phosphorylation) of S6 and 4EBP1 by rapalogs or other mTOR inhibitors.
MEF TSC1−/− cells were plated on Poly-D-lysine coated 384 well Griener clear bottom plates and incubated overnight at 37° C., 5% CO2. […] Nuclei were visualized with Hoechst (ThermoFisher Scientific #H3570) staining. Cells were imaged (InCell 600) using respective fluorescence channels and the potency of mTOR inhibitors was defined by pS6 IC50 (nM).
In vitro potency of mTOR inhibitors was defined by pS6 IC50 (nM) in MEF TSC1−/− cells.

FKBP51 = FKBP51 (Homo sapiens (Human), UniProt Q13451); assay: SPR assay, binding affinity to FKBP51; conditions: single-cycle kinetics
Protocol: (§1) SPR Assay to Determine Binding Affinity to FK506-Binding Proteins (FKBP). N-terminal avi-his6 tagged FKBP fusions to FKBP12, FKBP51 and FKBP52 were expressed in E. coli and purified using standard chromatography. Each protein was subsequently immobilized on a streptavidin chip in a Biacore 8K SPR instrument (GE Healthcare). Using single-cycle kinetics, compound titrations were flowed at 45 uL/min over each surface using 2-minute association and 30-minute dissociation phases in a buffer containing 50 mM Tris pH 7.5/150 mM NaCl/0.01% Tween 20/1 mM DTT/2% DMSO. The data was fit using low molecular weight (LMW) single-cycle kinetics. The equilibrium dissociation constants (KD) are reported.

[1] = Comparative blood and brain concentrations in rats after oral dosing; format: in vivo; conditions: rat; p.o. 3, 10 and 30 mg/kg; 3 h and 24 h
Protocol: Concentrations were determined using HPLC/Mass spectrometry. […] Blood and brain tissues were collected at 3 hours (h) and 24 h following treatment to determine concentrations of the compounds.

mTORC1 pathway = assay: Inhibition of mTORC1 pathway in rat liver (p-S6/t-S6 immunoblot); format: in vivo
Protocol: Protein extraction and immunoblotting. For protein extraction, snap frozen tissues were lysed in MSD Lysis Buffer (MSD, Rockville, Maryland), supplemented with complete EDTA free protease inhibitor and PhosSTOP phosphatase inhibitor tablets (Roche, Manheim, Germany), and centrifuged at 13,000 g for 20 min at 4° C. The resultant supernatant was used for immunoblotting. Protein was quantified with BCA protein assay (Thermo Scientific, MA). Samples were resolved on 4-20% Criterion™ TGX™ Precast Midi Protein gels (Bio-Rad, CA) and transferred onto nitrocellulose membranes (Bio-Rad, CA) using a Trans Turbo Blot system (Bio-Rad, CA). Immunoblotting was performed with antibodies to p-S6 and t-S6 from Cell Signaling Technologies (all 1:1000 in TBS-T with 5% BSA). The ‘p’ and ‘t’ prefixes signify ‘phosphorylated’ and ‘total’ forms respectively. HRP-conjugated secondary antibodies against rabbit (#7074) were from Cell Signaling Technologies, MA. […] Resultant digital images were converted into a TIFF format and quantified using ImageJ software.
The ability of Example 2 to inhibit mTORC1 pathway in vivo was determined in rats aged 4 months (FIG. 5A-5D).

[2] = tested on: S6K1 (Thr389) in FKBP12 knock-down 293T cells; assay: S6K1 (Thr389) phosphorylation ELISA in FKBP12 knock-down 293T cells; format: cell-based; conditions: 2 hours treatment
in vivo = conditions: male, Sprague Dawley, rat, whole blood; for bioavailability: oral, 3 mg/kg
FKBP12 = FKBP12 (Homo sapiens (Human), UniProt P62942); assay: SPR assay, binding affinity to FKBP12; conditions: single-cycle kinetics
Protocol: as §1

FKBP52 = FKBP52 (Homo sapiens (Human), UniProt Q02790); assay: SPR assay, binding affinity to FKBP52; conditions: single-cycle kinetics
Protocol: as §1

FKBP51, sequence (Q13451 whole entry, the tested form may be a part): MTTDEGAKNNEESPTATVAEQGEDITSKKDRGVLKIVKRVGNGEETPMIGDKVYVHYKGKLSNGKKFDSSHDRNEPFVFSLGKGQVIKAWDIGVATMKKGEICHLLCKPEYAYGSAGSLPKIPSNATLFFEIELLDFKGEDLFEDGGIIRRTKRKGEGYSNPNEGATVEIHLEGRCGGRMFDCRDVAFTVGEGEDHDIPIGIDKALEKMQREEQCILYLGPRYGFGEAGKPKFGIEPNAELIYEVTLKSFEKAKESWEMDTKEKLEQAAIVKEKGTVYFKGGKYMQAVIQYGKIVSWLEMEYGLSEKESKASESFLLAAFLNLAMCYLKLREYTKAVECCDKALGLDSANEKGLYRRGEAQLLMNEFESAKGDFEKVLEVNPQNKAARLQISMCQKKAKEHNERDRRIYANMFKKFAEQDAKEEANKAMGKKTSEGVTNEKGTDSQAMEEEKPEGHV
FKBP12, sequence (P62942 whole entry): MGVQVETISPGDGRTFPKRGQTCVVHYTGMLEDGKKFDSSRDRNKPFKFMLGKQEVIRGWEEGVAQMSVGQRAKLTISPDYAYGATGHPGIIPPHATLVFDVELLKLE
FKBP52, sequence (Q02790 whole entry): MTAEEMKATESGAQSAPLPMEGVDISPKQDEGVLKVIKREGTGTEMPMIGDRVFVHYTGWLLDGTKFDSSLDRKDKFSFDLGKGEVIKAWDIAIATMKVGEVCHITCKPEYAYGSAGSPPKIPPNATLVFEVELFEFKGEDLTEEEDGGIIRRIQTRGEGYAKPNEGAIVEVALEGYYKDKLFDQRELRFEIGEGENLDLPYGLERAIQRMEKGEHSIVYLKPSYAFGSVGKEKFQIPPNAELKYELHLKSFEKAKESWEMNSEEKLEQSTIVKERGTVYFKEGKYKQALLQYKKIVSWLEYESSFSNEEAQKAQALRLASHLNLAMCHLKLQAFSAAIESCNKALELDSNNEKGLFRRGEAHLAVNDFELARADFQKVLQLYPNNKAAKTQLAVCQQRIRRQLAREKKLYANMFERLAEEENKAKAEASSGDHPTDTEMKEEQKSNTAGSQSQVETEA

| IC50 (mTORC1 signaling) [nM] | Kd (FKBP51) [nM] | blood concentrations compared with RAD001 [1] | brain concentrations compared with RAD001 [1] | clearance (in vivo; iv, 1 mg/kg) [mL/min/kg] | half-life (in vivo; iv, 1 mg/kg) [h] | bioavailability (in vivo) [%] | SMILES | S6 inactivation in rat livers (mTORC1 pathway; 24 h following dosing with 10 (trend p=0.06) and 30 mg/kg) | de-phosphorylation (inactivation) of S6 in rat livers (mTORC1 pathway; single dose 3, 10 and 30 mg/kg, three hours following dosing, vs vehicle) | maximum inhibition of S6K1(Thr389) [2] [%] | Kd (FKBP12) [nM] | Kd (FKBP52) [nM] |
| --- | --- | --- | --- | --- | --- | --- | --- | --- | --- | --- | --- | --- |
| 0.274 | > 10000 | higher | higher | 9 | 9.9 | 18 | CO[C@@H]1C[C@H](C[C@@H](C)[C@@H]2CC[C@H](C)/C=C(\C)[C@@H](O)[C@@H](OC)C(=O)[C@H](C)C[C@H](C)/C=C/C=C/C=C(\C)[C@H](N3CCCS3(=O)=O)C[C@@H]3CC[C@@H](C)[C@@](O)(O3)C(=O)C(=O)N3CCCC[C@H]3C(=O)O2)CC[C@H]1O [Example 2, (R)—C16-(1,1-dioxidoisothiazolidin-2-yl)-C32-deoxo-rapamycin] | remained inactivated | significant de-phosphorylation | 40 | – | – |
| 0.05 | 811 | – | – | 32 | – | 19 | CO[C@H]1C[C@@H]2CC[C@@H](C)[C@@](O)(O2)C(=O)C(=O)N2CCCC[C@H]2C(=O)O[C@H]([C@H](C)C[C@@H]2CC[C@@H](OCCO)[C@H](OC)C2)CC(=O)[C@H](C)/C=C(\C)[C@@H](O)[C@@H](OC)C(=O)[C@H](C)C[C@H](C)/C=C/C=C/C=C/1C [RAD001, everolimus, reference compound] | – | – | 70 | – | – |

| SMILES | IC50 (mTORC1 signaling) [nM] | Kd (FKBP51) [nM] | blood concentrations compared with RAD001 [1] | brain concentrations compared with RAD001 [1] | clearance (in vivo; iv, 1 mg/kg) [mL/min/kg] | half-life (in vivo; iv, 1 mg/kg) [h] | bioavailability (in vivo) [%] | S6 inactivation in rat livers (mTORC1 pathway; 24 h following dosing with 10 (trend p=0.06) and 30 mg/kg) | de-phosphorylation (inactivation) of S6 in rat livers (mTORC1 pathway; single dose 3, 10 and 30 mg/kg, three hours following dosing, vs vehicle) | maximum inhibition of S6K1(Thr389) [2] [%] | Kd (FKBP12) [nM] | Kd (FKBP52) [nM] |
| --- | --- | --- | --- | --- | --- | --- | --- | --- | --- | --- | --- | --- |
| CO[C@@H]1C[C@H](C[C@@H](C)[C@@H]2CC[C@H](C)/C=C(\C)[C@@H](O)[C@@H](OC)C(=O)[C@H](C)C[C@H](C)/C=C/C=C/C=C(\C)C(N3CCS3(=O)=O)C[C@@H]3CC[C@@H](C)[C@@](O)(O3)C(=O)C(=O)N3CCCC[C@H]3C(=O)O2)CC[C@H]1O (single isomer, unassigned) [Example 6, C16-(1,1-dioxido-1,2-thiazetidin-2-yl)-C32-deoxo-rapamycin] | 0.17 | 39 | – | – | – | – | – | – | – | – | 0.32 | 53 |
